Experimental data from patent US7378234B2, “Method for isolating hepatitis C virus peptides” (Intercell AG, priority 2002, dated 2008).
“Also recorded” adds a separate entry of the source. Read-outs that look alike come from different tables or passages of the source.

Experiments:
HLA class I [1] = conditions: source data: literature reference; cited from earlier work
HLA class II = HLA class II coverage of hotspots and epitopes, compiled from the Examples and Tables of this specification (epitope capture, HLA-transgenic animals, in vitro stimulation of human mononuclear cells); conditions: source data: Examples and Tables within this specification
PBMC (in vitro primed) = assay: IFN-gamma ELIspot after 2 rounds of in vitro priming of human PBMC; format: cell-based; conditions: donor H10
Procedure: Human PBMCs are repeatedly stimulated with antigen (peptide or peptide mixture) in the presence of IL-2 and IL-7. This leads to the selective oligoclonal expansion of antigen-specific T cells. Responses against individual epitopes can be assessed for instance by IFN-γ ELIspot assays. Freshly thawed PBMCs were cultured in 6 well plates (2-4×10^6/mL viable cells) in RPMI-1640 (GibcoBRL), 1% non-essential amino acids (GibcoBRL, cat# 11140-035), 1% Penicillin (10,000 U/ml)-Streptomycin (10,000 μg/ml) (GibcoBRL, cat#15140-122), 1% L-Glutamine (GibcoBRL), 0.1% beta-mercapto-ethanol (GibcoBRL), 1% Na-pyruvate (GibcoBRL), plus 10% Human AB serum (PAA, Linz, Austria). Peptides (10 μM each) were added to each well. rhIL-7 (Strathmann Biotech) was added at 10 ng/mL final concentration. 20-30 U/mL rhIL-2 (Strathmann Biotech) were added on day 4. On day 10, all cells were removed from plates, washed once in media (as above), and counted. For the next cycle of in vitro priming, viable cells were co-cultivated with autologous gamma irradiated (1.2 gray/min, for 20 minutes) PBMC as feeders (plated at 100,000 per well) and peptides, rh-IL-2 as described above. ELIspot was done as described above, except that 200,000 responder cells (pre-stimulated for 2 rounds of in vitro priming) were used together with 60,000 autologous irradiated […] cells.

HLA class I [2] = assay: HLA class I coverage of hotspots and epitopes, compiled from the Examples and Tables of this specification (epitope capture, HLA-transgenic animals, in vitro stimulation of human mononuclear cells); conditions: source data: Examples and Tables within this specification
Source text: Thus, as even individual T-cell epitopes are not obvious within the sequence of a polypeptide, the same is even more the case for hotspots. Several radically different experimental approaches are combined according to the present invention for T-cell epitope identification, including epitope capture, HLA-transgenic animals and in vitro stimulation of human mononuclear cells. All three approaches are systematically applied on overlapping peptides spanning the antigen of interest, enabling comprehensive identification of epitopes (refer to CMV Epitope Capture patent). Upon such a comprehensive analysis, not limited to a particular HLA allele, but rather unravelling all possibly targeted epitopes within a population, epitope hotspots may become apparent. Within an antigen, only few if any sequences show characteristics of hotspots. Thus the identification of a hotspot is always a surprising event.

[3] = tested on: PBMC from HCV RNA-negativ therapy responders or subjects spontaneously recovered; assay: IFN-gamma ELIspot with human PBMC from HCV therapy responders or spontaneously recovered subjects; conditions: directly ex vivo, >8 significant
HLA-B*0702 = HLA-B*0702 (Homo sapiens, UniProt P01889); assay: Competition-type peptide binding assay, soluble HLA-B*0702, FITC-labelled reference peptide; conditions: for HLA-B*0702 minimal epitope (in words): short peptides from Ipep 1587 with HLA-B*0702 binding motifs
Procedure: These were tested in a competition-type peptide binding assay using soluble HLA-B*0702 and the FITC-labelled reference peptide […] (SEQ ID NO:1033), which is a known HLA-B*0702 epitope derived from EBV (Stuber et al., 1995). […] Thus it is likely to present the minimal HLA-B*0702 epitope contained in Ipep 1587.

[4] = tested on: HLA-A*0201 transgenic mice; assay: Vaccination of HLA-A*0201 transgenic mice (peptide + IC31), IFN-gamma ELISpot with spleen cells and CD8+ fraction; format: in vivo, mouse; conditions: peptide + IC31, whole spleen cells and CD8+ fraction
Procedure: (§1) Mouse splenocyte ELIspot assay for single cell IFN-gamma release ELISpot plates (MAHA S4510, Millipore, Germany) were rinsed with PBS (200 μl/well), coated with anti-mouse IFN-gamma mAb (clone R46A2; 100 μl/well of 5 μg/ml in 0.1 M NaHCO3, pH 9.2-9.5) and incubated overnight at 4° C. Plates were washed four times with PBS/0.1% Tween 20 and incubated with PBS/1% BSA (200 μl/well) at room temperature for 2 h to block nonspecific binding. Spleen cells from vaccinated mice were prepared and plated at 1×10^6-3×10^5 cells/well and incubated overnight at 37° C./5% CO2 either in the presence of the immunizing antigen (peptide), control peptides or with medium alone. Subsequently, plates were washed four times and incubated with biotinylated anti-mouse IFN-gamma mAb (clone AN18.17.24, 100 μl/well of 2 μg/ml in PBS/1% BSA) for 2 h at 37° C. After washing, streptavidin-peroxidase (Roche Diagnostics, Vienna, Austria) was added ( 1/5000 in PBS, 100 μl/well) and plates were incubated at room temperature for 2 additional hours. Subsequently, substrate was added to the washed plates (100 μl/well of a mixture of 10 ml 100 mM Tris pH 7.5 supplemented with 200 μl of 40 mg/ml DAB stock containing 50 μl of 80 mg/ml NiCl2 stock and 5 μl of 30% H2O2). The reaction was stopped after 20-30 minutes by washing the plates with tap water. Dried plates were evaluated with an ELISpot reader (BIOREADER 2000, BioSys, Karben, Germany).
(§2) Groups of 5 mice (HLA-A*0201-, HLA-DRB1*0401- and HLA-B*0702 transgenic mice, male, 8-14 weeks of age) were injected subcutaneous into the hind footpads with 100 μg of peptide +IC31 per mouse (50 μg per footpad). (PCT/EP01/12041, WO 02/32451 A1 and PCT/EP01/06433, WO 01/93905 A1; IC31 is a combination of the immunizer disclosed in WO 01/93905 and WO 02/32451).
(§3) 6 days after vaccination single cell suspension of pooled spleens were prepared and additionally pure fractions of CD8+ in the case of A2 and B7 tg mice (CD8+ fraction for B7 mice containing 97% of CD8 and 1.5% of CD4 cells and for A2 tg mice 83% of CD8 and 8% of CD4 cells) and CD4+ for DR4tg mice (CD4+ fraction for DR4tg mice containing 98% of CD4 cells and 0.2% of CD8 cells) were separated from the spleen cell suspension using MACS separating kit (Miltenyi, Germany).

[5] = tested on: HLA-A*0201 transgenic mice; assay: Immunization of HLA-A*0201 transgenic mice (peptide + CpI), splenocyte IFN-gamma ELISpot; format: in vivo, mouse; conditions: for immunogenicity in HLA-A*0201 transgenic mice (in words): Example II, IFN-gamma ELISpot of splenocytes; for Immunogenicity, peptide-specific IFN-gamma-producing cells, A*0201: HLA-A*0201 transgenic mice, splenocytes
Outline: (§4)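 Read-out is IFN-gamma ELISpot on splenocytes stimulated overnight with immunizing peptide, control peptide or medium alone, scored + (<100) or ++ (>100 peptide-specific cells per 10^6 splenocytes). Immunization: 100 μg peptide with 30 μg CpI per mouse, s.c. flank, three 8-week-old females per group.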

[6] = tested on: HLA-B*0702 transgenic mice; assay: Vaccination of HLA-B*0702 transgenic mice (peptide + IC31), IFN-gamma ELISpot with spleen cells and CD8+ fraction; format: in vivo, mouse; conditions: for Immunogenicity, peptide-specific IFN-gamma-producing cells, B*0702: HLA-B*0702 transgenic mice, splenocytes; for specific INF-γ producing T cells / HLA-B*0702 epitope in HLA-B*0702 transgenic mice (in words): peptide + IC31, whole spleen cells and CD8+ fraction
Outline: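 Transgenic mice (groups of 5, male, 8–14 weeks) vaccinated s.c. in hind footpads with 100 μg peptide + IC31; 6 days later pooled splenocytes or MACS-purified CD8+ (A2, B7) or CD4+ (DR4) fractions restimulated overnight with peptide. IFN-gamma spots counted by ELISpot, 1×10^6–3×10^5 cells/well.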

[7] = tested on: HLA-DRB1*0401 transgenic mice; assay: Vaccination of HLA-DRB1*0401 transgenic mice (peptide + IC31), IFN-gamma ELISpot with spleen cells and CD4+ fraction; format: in vivo, mouse; conditions: peptide + IC31, whole spleen cells and CD4+ fraction
Procedure: as §1, §2, §3

[8] = tested on: HLA-DRB1*0401 transgenic mice; assay: Immunization of HLA-DRB1*0401 transgenic mice (peptide + CpI), splenocyte IFN-gamma ELISpot; format: in vivo, mouse; conditions: for immunogenicity in HLA-DRB1*0401 transgenic mice (in words): Example II, IFN-gamma ELISpot of splenocytes; for Immunogenicity, peptide-specific IFN-gamma-producing cells, DRB1*0401: HLA-DRB1*0401 transgenic mice, splenocytes
Outline: as §4

HLA-DRB1*0404 = HLA-DRB1*0404 (Homo sapiens, UniProt P01903+P01911, A100R/A169T/F76Y/I96L/K127E/L162R/M171V/N62H/P40V/Q125Y/R42H/S133A/S149N/S66Y/V209L/W38E); assay: Epitope capture / peptide binding, SDS-stability assay, soluble DRB1*0404; conditions: soluble HLA class II, individual peptide confirmed (Table 2)
HLA-DRB1*0401 = HLA-DRB1*0401 (Homo sapiens, UniProt P01903+P01911, A100K/A169T/F76Y/I96L/K127E/L162R/M171V/N62H/P40V/Q125Y/R42H/S133A/S149N/S66Y/V115G/V209L/W38E); assay: Epitope capture / peptide binding, SDS-stability assay, soluble DRB1*0401; conditions: soluble HLA class II, individual peptide confirmed (Table 2)
HLA-DRB1*0101 = HLA-DRB1*0101 (Homo sapiens, UniProt P01903+P01911, A100R/D57E/F55L/F60I/F76Y/I96L/L162R/M171V/P40L/Q125E/R42F/V115G/Y59C); assay: Epitope capture / peptide binding, SDS-stability assay, soluble DRB1*0101; conditions: soluble HLA class II, individual peptide confirmed (Table 2)

Substance | HLA-class II coverage (HLA class II) | specific INF-γ producing T cells / HLA-A*0201 epitope in HLA-A*0201 transgenic mice (in words) [4] | immunogenicity in HLA-A*0201 transgenic mice (in words) [5] | Immunogenicity, peptide-specific IFN-gamma-producing cells, A*0201 [5] | Immunogenicity, peptide-specific IFN-gamma-producing cells, B*0702 [6] | specific INF-γ producing T cells / HLA-B*0702 epitope in HLA-B*0702 transgenic mice (in words) [6] | specific INF-γ producing T cells / HLA-DRB1*0401 epitope in HLA-DRB1*0401 transgenic mice (in words) [7] | immunogenicity in HLA-DRB1*0401 transgenic mice (in words) [8] | Immunogenicity, peptide-specific IFN-gamma-producing cells, DRB1*0401 [8] | Binding to DRB1 *0101 (HLA-DRB1*0101) | also measured
1754 (DYPYRLWHY) [compound 1754] | – | – | – | – | – | – | – | – | – | – | HLA-class I coverage (HLA class I [1]): Cw7
DYPYRLWHYPCTVNYTIFKI [Peptide 1800] | DR7 | – | – | – | – | – | – | – | – | – | peptide-specific IFN-gamma secreting T-cells, donor H10, after 2 rounds of in vitro stimulation (PBMC (in vitro primed)): 95 T-cells/10^6 PBMC; HLA-class I coverage (HLA class I [2]): Cw7,A24,A11; peptide-specific IFN-gamma secreting T-cells, donor H38 ([3]; donor H38): 35 T-cells/10^6 PBMC
SPGALVVGVI [Peptide 1838] | – | – | – | – | – | – | – | – | – | – | competition of FITC-labelled reference peptide binding to soluble HLA-B*0702 (HLA-B*0702; 80-fold molar excess, 48 h at 37° C., reference peptide LPCVLWPVL): ~30%; HLA-B*0702 minimal epitope (in words) (HLA-B*0702): minimal HLA-B*0702 epitopes; HLA-B*0702 minimal epitope (in words) (HLA-B*0702; listed as Ipep 1838): HLA-B*0702 minimal epitope
VDYPYRLWHYPCTVNFTIFKVRMYVGGVEHRL [Peptide 1650] | DR1,4,7,11 | confirmed to contain human HLA-A*0201 epitopes | immunogenicity | ++ (strongly immunogenic (++, more than 100 peptide-specific cells among a million splenocytes)) | + (immunogenic (+, less than 100 peptide-specific cells among a million splenocytes)) | HLA-B*0702 epitopes with T-cell activating capacity | confirmed to contain human HLA-DRB1*0401 epitopes | immunogenicity | ++ (strongly immunogenic (++, more than 100 peptide-specific cells among a million splenocytes)) | – | –
VVCCSMSYSWTGALITPC [Peptide 1605] | – | confirmed to contain human HLA-A*0201 epitopes | immunogenicity | + (immunogenic (+, less than 100 peptide-specific cells among a million splenocytes)) | + (immunogenic (+, less than 100 peptide-specific cells among a million splenocytes)) | HLA-B*0702 epitopes with T-cell activating capacity | confirmed to contain human HLA-DRB1*0401 epitopes | immunogenicity | + (immunogenic (+, less than 100 peptide-specific cells among a million splenocytes)) | nb (no binding) | specific INF-γ producing T cells / HLA-A*0201 epitope in HLA-A*0201 transgenic mice (in words) ([4]; listed as Ipep1605): weaker responses; Binding to DRB1 *0404 (HLA-DRB1*0404): * (weak binding); specific INF-γ producing T cells / HLA-B*0702 epitope in HLA-B*0702 transgenic mice (in words) ([6]; listed as Ipep1605): weaker responses; specific INF-γ producing T cells / HLA-DRB1*0401 epitope in HLA-DRB1*0401 transgenic mice (in words) ([7]; listed as Ipep1605): weaker responses; Binding to DRB1 *0401 (HLA-DRB1*0401): nb (no binding); peptide-specific IFN-gamma secreting T-cells, donor H04 ([3]; donor H04): 25 T-cells/10^6 PBMC
VVCCSMSYTWTGALITPC [Peptide 1604] | DR1,4,7,11 | – | immunogenicity | ++ (strongly immunogenic (++, more than 100 peptide-specific cells among a million splenocytes)) | ++ (strongly immunogenic (++, more than 100 peptide-specific cells among a million splenocytes)) | HLA-B*0702 epitopes with T-cell activating capacity | – | immunogenic; also recorded: immunogenicity | ++ (strongly immunogenic (++, more than 100 peptide-specific cells among a million splenocytes)) | * (weak binding) | specific INF-γ producing T cells / HLA-A*0201 epitope in HLA-A*0201 transgenic mice (in words) ([4]; listed as Ipep1604): high numbers of specific INF-γ producing T cells; also recorded: class I epitopes; specific INF-γ producing T cells / HLA-B*0702 epitope in HLA-B*0702 transgenic mice (in words) ([6]; listed as Ipep1604): high numbers of specific INF-γ producing T cells; also recorded: class I epitopes; specific INF-γ producing T cells / HLA-DRB1*0401 epitope in HLA-DRB1*0401 transgenic mice (in words) ([7]; listed as Ipep1604): high numbers of specific INF-γ producing T cells; also recorded: class II epitope
